Assay results published in the CheMixHub viscosity set.
Values joined by “and” are separate entries in the source; they are usually repeats but may differ in a detail not shown here. Identical values can stand only once. ± gives the uncertainty stated by the source.

Question: For `COCCO`, which viscosity (293.15 K, 101 kPa) is on record?
Answer: Its viscosity is 1.78 ± 0.02 mPa·s.

Question: And the viscosity (298.15 K, 100 kPa)?
Answer: The viscosity was 1.649 ± 0.015 mPa·s and 1.563 ± 0.032 mPa·s.

Question: What about the viscosity (298.15 K, 101.3 kPa) of the same molecule?
Answer: Its viscosity is 1.522 ± 0.077 mPa·s and 1.695 ± 0.022 mPa·s.

Question: What about the viscosity (298.15 K, 101.33 kPa) of the same molecule?
Answer: The viscosity was 1.552 ± 0.014 mPa·s.

Question: And the viscosity (303.15 K, 100 kPa)?
Answer: The viscosity was 1.457 ± 0.013 mPa·s.

Question: And the viscosity (303.15 K, 101.3 kPa)?
Answer: Its viscosity is 1.381 ± 0.07 mPa·s and 1.525 ± 0.02 mPa·s and 1.376 ± 0.016 mPa·s.

Question: What about the viscosity (303.15 K, 101.33 kPa) of the same molecule?
Answer: Its viscosity is 1.476 ± 0.038 mPa·s.

Question: What about the viscosity (308.15 K, 100 kPa) of the same molecule?
Answer: The viscosity was 1.292 ± 0.012 mPa·s.

Question: What about the viscosity (308.15 K, 101.3 kPa) of the same molecule?
Answer: Its viscosity is 1.242 ± 0.008 mPa·s and 1.368 ± 0.018 mPa·s.

Question: And the viscosity (313.15 K, 100 kPa)?
Answer: The viscosity was 1.15 ± 0.011 mPa·s and 1.188 ± 0.025 mPa·s.

Question: What about the viscosity (313.15 K, 101.3 kPa) of the same molecule?
Answer: Its viscosity is 1.151 ± 0.058 mPa·s and 1.155 ± 0.048 mPa·s.

Question: What about the viscosity (313.15 K, 101.33 kPa) of the same molecule?
Answer: The viscosity was 1.2 ± 0.009 mPa·s and 1.189 ± 0.032 mPa·s.

Question: And the viscosity (318.15 K, 101.33 kPa)?
Answer: The viscosity was 1.098 ± 0.009 mPa·s and 1.04 ± 0.007 mPa·s and 1.042 ± 0.009 mPa·s.

Question: And the viscosity (323.15 K, 101 kPa)?
Answer: Its viscosity is 0.931 ± 0.056 mPa·s and 0.9856 ± 0.007 mPa·s and 0.965 ± 0.013 mPa·s.

Question: And the viscosity (323.15 K, 101.3 kPa)?
Answer: The viscosity was 0.9746 ± 0.049 mPa·s.

Question: Which results are given for `CC(CC(C)(C)C)CC(C)(C)CC(C)(C)C` (centres undefined)?
Answer: viscosity (293.15 K, 100 kPa): 3.64 ± 0.23 mPa·s and 3.64 ± 0.17 mPa·s and 3.782 ± 0.098 mPa·s (2×); viscosity (298.15 K, 101.33 kPa): 3.343 ± 0.041 mPa·s; viscosity (303.15 K, 100 kPa): 2.984 ± 0.078 mPa·s; viscosity (313.15 K, 100 kPa): 2.43 ± 0.16 mPa·s and 2.43 ± 0.11 mPa·s and 2.411 ± 0.062 mPa·s (2×); viscosity (323.15 K, 100 kPa): 2.01 ± 0.13 mPa·s and 2.01 ± 0.09 mPa·s and 2.018 ± 0.051 mPa·s (2×)

Question: With `CC(=O)[O-].CC[NH+](CC)CC` as the molecule, how does the viscosity (303.15 K, 101 kPa) read?
Answer: The viscosity was 19.6 ± 0.41 mPa·s and 19.64 ± 0.5 mPa·s.

Question: And the viscosity (308.15 K, 101 kPa)?
Answer: The viscosity was 16.13 ± 0.33 mPa·s and 16.13 ± 0.41 mPa·s.

Question: What about the viscosity (313.15 K, 101 kPa) of the same molecule?
Answer: The viscosity was 14.81 ± 0.31 mPa·s.

Question: Which viscosity (298.1 K, 101 kPa) does the source give for `CC(O)=S` here?
Answer: Its viscosity is 0.687 ± 0.051 mPa·s and 0.687 ± 0.046 mPa·s.

Question: Which results are given for `CCCCCCCBr`?
Answer: viscosity (293.15 K, 101 kPa): 1.205 ± 0.026 mPa·s; viscosity (303.15 K, 101 kPa): 1.05 ± 0.023 mPa·s; viscosity (313.15 K, 101 kPa): 0.925 ± 0.02 mPa·s; viscosity (323.15 K, 101 kPa): 0.82 ± 0.018 mPa·s

Question: Which viscosity (298.15 K, 101 kPa) does the source give for `CCN(C=O)CC` here?
Answer: Its viscosity is 1.25 ± 0.03 mPa·s.

Question: What about the viscosity (298.15 K, 101.33 kPa) of the same molecule?
Answer: The viscosity was 1.254 ± 0.008 mPa·s.

Question: What about the viscosity (298.16 K, 101 kPa) of the same molecule?
Answer: Its viscosity is 1.139 ± 0.011 mPa·s.

Question: And the viscosity (308.15 K, 101 kPa)?
Answer: The viscosity was 1.03 ± 0.03 mPa·s.

Question: And the viscosity (323.15 K, 101 kPa)?
Answer: Its viscosity is 0.86 ± 0.02 mPa·s.

Question: And the viscosity (323.15 K, 101.33 kPa)?
Answer: The viscosity was 0.851 ± 0.006 mPa·s.

Question: Which viscosity (293.15 K, 101.33 kPa) does the source give for `CCCCNCCCC` here?
Answer: The viscosity was 0.85 ± 0.009 mPa·s.

Question: What about the viscosity (298.15 K, 100 kPa) of the same molecule?
Answer: Its viscosity is 0.81 ± 0.03 mPa·s.

Question: And the viscosity (298.15 K, 101.33 kPa)?
Answer: The viscosity was 0.81 mPa·s.

Question: What about the viscosity (303.15 K, 100 kPa) of the same molecule?
Answer: The viscosity was 0.75 ± 0.03 mPa·s.

Question: And the viscosity (303.15 K, 101 kPa)?
Answer: The viscosity was 0.764 ± 0.015 mPa·s and 0.7734 ± 0.0098 mPa·s.

Question: What about the viscosity (303.15 K, 101.33 kPa) of the same molecule?
Answer: Its viscosity is 0.73 ± 0.008 mPa·s.

Question: What about the viscosity (308.15 K, 100 kPa) of the same molecule?
Answer: Its viscosity is 0.71 ± 0.03 mPa·s.

Question: What about the viscosity (308.15 K, 101 kPa) of the same molecule?
Answer: The viscosity was 0.7184 ± 0.0091 mPa·s and 0.6757 ± 0.011 mPa·s.

Question: And the viscosity (308.15 K, 101.33 kPa)?
Answer: Its viscosity is 0.698 mPa·s.

Question: What about the viscosity (313.15 K, 101 kPa) of the same molecule?
Answer: Its viscosity is 0.6692 ± 0.0085 mPa·s.

Question: And the viscosity (313.15 K, 101.33 kPa)?
Answer: Its viscosity is 0.64 ± 0.007 mPa·s.

Question: What about the viscosity (318.15 K, 101 kPa) of the same molecule?
Answer: The viscosity was 0.6249 ± 0.008 mPa·s.

Question: What about the viscosity (318.15 K, 101.33 kPa) of the same molecule?
Answer: Its viscosity is 0.611 mPa·s.

Question: And the viscosity (323.15 K, 101 kPa)?
Answer: The viscosity was 0.5859 ± 0.0075 mPa·s.

Question: And the viscosity (323.15 K, 101.33 kPa)?
Answer: The viscosity was 0.56 ± 0.006 mPa·s.
